The source of these data is patent US20210030700A1, “COMPOSITION FOR PREVENTING AND TREATMENT OF SPINAL CORD INJURY” (NEUROBIOGEN CO.,LTD, priority 2018, published 2021).

Assay type in all cases: in vivo, Sprague-Dawley rats
The test system of experiment [1] is spinal cord injury model. Nature of the experiment: Immunofluorescence staining for macrophage marker CD68 and microglia marker Ibal. The following applies: KDS2010-administered spinal cord injury model group. The protocol:
(§1) The animal models of spinal cord injury herein used were adult male Sprague-Dawley rats weighing 180 to 200 g, and the rats were anesthetized by intraperitoneal injection of ketamine. Laminectomy was conducted on the T9 portion to expose the spinal cord, the spinal cord was compressed for 10 seconds using a dedicated forceps (self-closed forceps, Germany) to induce spinal cord injury, and then the muscles and skin were sutured.
When a spinal cord injury occurs, destroyed cells and cell clusters were observed inward from the injured site. These cells may cause an inflammatory reaction and interfere with regeneration from spinal cord injury. A test was conducted to investigate the effect of the drug KDS2010 on inflammatory reaction.
Specifically, the spinal cord injury model administered with KDS2010 was subjected to immunofluorescence staining to determine whether or not the cells were positive for the macrophage marker CD68 and the microglia marker Ibal.

Experiment [2] deals with spinal cord injury model. The experiment can be described thus: BrdU immunofluorescence staining of spinal nerves, formation of new nerve cells. The following applies: spinal cord injury model treated with KDS2010; BrdU 50 mg/kg/day i.p. On the procedure: as §1
A test to determine whether or not treatment with KDS2010 has an effect of inducing differentiation of new nerve cells was conducted in order to investigate the effect of spinal cord regeneration.
Specifically, BrdU was administered at a dose of 50 mg/kg/day to test animals by i.p. injection one week before scarification, and spinal nerves were subjected to immunofluorescence staining and then observed.

The test system of experiment [3] is spinal cord-injured rats and normal rats. Nature of the experiment: Basso-Beattie-Bresnahan (BBB) locomotor rating behavior test. The protocol:
as §1
(§2) Of the 50 spinal cord injury animal models in total, 5 were a non-drug-administered control group (Normal), 5 were a drug-administered control group (Normal/KDS2010), 20 were a non-drug-administered group subjected to spinal cord injury (SCI), and 20 were a drug-administered group subjected to spinal cord injury (SCI/KDS2010). 2 weeks after induction of spinal cord injury, a mixture of the drug and drinking water was administered at a dose of 10 mg/kg.
A motor function test was performed 10 times in total weekly for 10 weeks after spinal cord injury, and the recovery of hindlimb function in the animals was evaluated using the Basso-Beattie-Bresnahan (BBB) motor score. The BBB score is divided into 21 points in total, and is broadly classified into 3 steps. In the first recovery phase, the degree of the joint movement and whether or not the soles contact the floor was checked, in the second recovery phase, the degree of recovery of weighted gait was monitored, and in the final stage, the balance of the gait and the recovery of the tail were mainly observed. The neuropathic pain response test upon spinal cord injury was conducted through the measurement of a change in mechanical paw withdrawal using a dynamic plantar aesthesiometer and was conducted weekly for 3 weeks after the injury causing response to the soles. This test was conducted by applying a force of 0 to 50 g to the sole of the paw of the hindlimb using a needle with a diameter of 0.5 mm for 20 seconds. At this time, the force applied when the sole withdrawal occurred due to pain was measured.
A behavior test was performed using a Basso-Beattie-Bresnahan (BBB) locomotor rating system after administration of KDS2010 to spinal-cord-injured rats and normal rats in the same manner as in Example 1-3 above. The result of the behavior test was expressed as a BBB score.

Experiment [4] has as its system spinal cord injury model. The experiment can be described thus: Toluidine blue (TB) staining and TEM imaging, re-myelination of spinal cord injury site. The conditions noted are these: spinal cord injury model treated with KDS2010. On the procedure:
as §1
Specifically, the number of […], the number of cavities and a g-ratio were measured through toluidine blue (TB) staining and TEM imaging.

Experiment [5] has as its system spinal cord-injured rats and normal rats. Nature of the experiment: EC staining of the injured area (T9), myelination of spinal cord tissue. The protocol:
as §1, §2
For EC staining (Eriochrome (Solochrome) cyanine staining), spinal cord tissue was obtained at 10 weeks after spinal cord injury, fixed with 4% paraformaldehyde, and dehydrated to perform freeze embedding. EC staining was performed on the injured area (thoracic vertebrae #9, T9) in 5 rats for the control group, 10 rats for the spinal cord-injured non-drug-administered group and 10 rats for the spinal cord-injured drug-administered group.
The EC staining is a staining method that can compare the areas of tissue and the myelinated part between groups because the myelinated part is stained in blue, whereas other nuclei, nerves, and non-myelinated parts appear in white.
EC staining was conducted on the injured area (thoracic vertebrae #9, T9) of the non-drug-administered control group, the drug-administered control group, the spinal cord-injured non-drug-administered group and the spinal cord-injured drug-administered group, in the same manner as in Example 1-4, and the results of myelinated parts were quantified.

For experiment [6] the test system is unchanged. Nature of the experiment: Pain response evaluation using a dynamic plantar test. The protocol: The animal models of spinal cord injury herein used were adult male Sprague-Dawley rats weighing 180 to 200 g, and the rats were anesthetized by intraperitoneal injection of ketamine. Laminectomy was conducted on the T9 portion to expose the spinal cord, the spinal cord was compressed for 10 seconds using a dedicated forceps (self-closed forceps, Germany) to induce spinal cord injury, and then the muscles and skin were sutured. […]
A motor function test was performed 10 times in total weekly for 10 weeks after spinal cord injury, and the recovery of hindlimb function in the animals was evaluated using the Basso-Beattie-Bresnahan (BBB) motor score. […] In the first recovery phase, the degree of the joint movement and whether or not the soles contact the floor was checked, in the second recovery phase, the degree of recovery of weighted gait was monitored, and in the final stage, the balance of the gait and the recovery of the tail were mainly observed. […] At this time, the force applied when the sole withdrawal occurred due to pain was measured.
A pain relief degree was measured using a pain response evaluation based on a dynamic plantar test after administration of KDS2010 to spinal-cord-injured rats and normal rats in the same manner as in Example 1-3 above.

The mark [7] stands for this setting: SCI/KDS2010 vs SCI, 10 weeks after injury.
Where [8] appears, read: drug-administered control group (Control/KDS2010), 10 weeks.

For `C[C@H](NCc1ccc(-c2ccc(C(F)(F)F)cc2)cc1)C(N)=O` [KDS2010, (S)-2-(((4′-trifluoromethylbiphenyl-4-yl)methyl)amino)propanamide methanesulfonate], in the experiment on spinal cord injury model [1], the “number of cells positive to CD68” value is recorded as “significantly decreased” and the “number of cells positive to Ibal” value is “significantly decreased”. The “formation of new nerve cells” value with spinal cord injury model [2] is on record as “exhibited newly formed nerve cells”. Further, the “gait and behavioral function in BBB test” value in experiment [3] (SCI/KDS2010, last week (10 weeks after injury)) was “balanced gait and restored behavioral function”. For the same compound, the “BBB score compared to spinal cord-injured group not administered with the drug” value in experiment [3] (SCI/KDS2010 vs SCI) is reported as “significantly improved”. The BBB score in experiment [3] (drug-administered control group (Normal/KDS2010), normal rats, 10 mg/kg in drinking water) is reported as 21 points. The BBB score in experiment [3] (spinal cord-injured drug-administered group (SCI/KDS2010), 10 mg/kg in drinking water from 2 weeks after injury, starting at 5 weeks) is recorded as at least 10 points. Moreover, in the experiment with spinal cord injury model [4], the number of cavities entry is recorded as “rapidly decreased” and the “number of myelinated exons” value is on record as “recovered to an almost normal value”. In the experiment with spinal cord injury model [4] (normal range 0.79±0.0005), the g-ratio entry was “within the normal range”. In experiment [5] (setting [7]), the “total myelinated area compared to spinal cord-injured non-drug-administered group” value is “increased” and the “total tissue area compared to spinal cord-injured non-drug-administered group” value is reported as “increased”. For the same compound, in experiment [5] (setting [8]), the “proportion of the total myelinated area to the total tissue area” value is “large”, the total myelinated area entry is reported as “large” and the total tissue area result is recorded as “large”. Also, in experiment [6] (SCI/KDS2010 vs SCI), the “threshold value for pain compared to spinal cord-injured non-drug-administered group” value is “significantly increased”. In experiment [6] (drug-administered control group (Normal/KDS2010), normal rats), the “threshold value for pain” value is “high threshold value”.
